# Measurements from patent publication US20190030049A1, “Celocoxib Binding Antibodies and Uses Thereof” (Marina Biotech, Inc., priority 2016, published 2019).
# Assay: clinical
# Details: human, plasma
compound,measurement,setting,value
"Cc1ccc(-c2cc(C(F)(F)F)nn2-c2ccc(S(N)(=O)=O)cc2)cc1 [celecoxib, Celecoxib]",AUC,100 mg,3400 ng·h/mL
same,AUC,200 mg,6800 ng·h/mL
